Source: patent US20250026748A1, “N-(5-SUBSTITUTED-[(1,3,4-THIADIAZOLYL) OR (THIAZOLYL)])(SUBSTITUTED)CARBOXAMIDE COMPOUNDS AND USE THEREOF FOR INHIBITING HUMAN POLYMERASE THETA” (Repare Therapeutics Inc., priority 2021, published 2025)

What was measured:
[1] = target: PolQ ATPase enzyme (1-894) (Homo sapiens (Human), UniProt O75417); assay: Polθ ATPase enzymatic assay (0.5 nM enzyme concentration), ADP-Glo; assay type: biochemical; settings: average IC50; 0.5 nM PolQ ATPase enzyme (1-894)
Outline: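 Enzyme (0.5 nM) pre-incubated 15 min at rt with 10-point inhibitor series in 50 mM Tris pH 7.5, 10% glycerol, 5 mM DTT, 10 mM MgCl2, 0.1 mg/ml BSA; reaction started with 20 nM fork DNA and 100 μM ATP, run 180 min at rt. ADP-Glo luminescence; IC50 from 4-parameter variable-slope fit.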

CYP3A4 [2] = target: T1, CYP3A4 (Homo sapiens (Human), UniProt P08684); assay: Reversible CYP inhibition in human liver microsomes (midazolam probe); assay type: in vitro ADME; settings: human liver microsomes 0.1 mg/mL, 2.5 μM midazolam, 5 min, test compound up to 30 μM
T1 sequence (P08684 whole entry): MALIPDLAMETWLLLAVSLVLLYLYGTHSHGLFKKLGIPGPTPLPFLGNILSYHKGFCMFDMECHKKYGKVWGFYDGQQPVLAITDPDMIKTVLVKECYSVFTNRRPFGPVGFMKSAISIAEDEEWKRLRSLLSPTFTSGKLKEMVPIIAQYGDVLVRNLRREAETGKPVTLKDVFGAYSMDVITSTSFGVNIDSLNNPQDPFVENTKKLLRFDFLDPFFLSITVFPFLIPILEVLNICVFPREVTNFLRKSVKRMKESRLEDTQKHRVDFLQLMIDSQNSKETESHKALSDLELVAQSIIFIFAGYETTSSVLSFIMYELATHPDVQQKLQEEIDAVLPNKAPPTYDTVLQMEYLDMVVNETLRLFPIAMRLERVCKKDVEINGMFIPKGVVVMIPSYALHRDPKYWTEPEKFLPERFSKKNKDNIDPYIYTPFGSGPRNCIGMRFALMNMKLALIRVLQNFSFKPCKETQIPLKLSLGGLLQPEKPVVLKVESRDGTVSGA
Experimental: A seven-point semi-log dilution of each test compound (up to […]) or positive control inhibitors for CYP2C9 (up to 1000 nM sulphenazole), CYP2D6 (up to 500 nM quinidine) and CYP3A4 (up to 250 nM ketoconazole) were dissolved in DMSO and added to the incubation plate using a Tecan 300 (normalized for 0.3% DMSO content). Final reaction conditions were: human liver microsomes (0.1 mg/mL), potassium phosphate buffer 100 mM pH 7.4, 1 mM magnesium chloride, 5 NM diclofenac, 5 NM dextromethorphan and 2.5 μM midazolam. After a pre-incubation at 37 00. The reaction was started with the addition of NADPH solution at the final concentration of 1 mM and carried out at 37 00 for 5 minutes. The reaction was stopped by the addition of 1 volume of cold acetonitrile with internal standard (labetalol) to the incubation plate. The incubation plate was centrifuged at 3000 rpm for 10 minutes to precipitate proteins, and the supernatant was analyzed by LC-MS/MS. Metabolite area ratio (4-OH-diclofenac, dextrorphan and 1-OH-midazolam) versus ISTD area ratio was used as the quantitative signal. Data were analyzed using the plot log of concentration (×-axis) versus the percentage of inhibition (y axis) and the IC50, Hill Slope and R^2 were determined.

[3] = Liver microsomal stability assay; assay type: in vitro ADME; settings: pH 7.4; human liver microsomes 0.5 mg/mL, 1 μM compound, NADPH 1 mM, 37 °C
Experimental: Liver microsomes were thawed on ice prior to use. The incubation mixtures were prepared in 96-well plates and contained test compound or control (1 μM), liver microsomes (0.5 mg of microsomal protein/mL), MgCl2 (5 mM), phosphate buffer (100 mM, pH 7.4), 0.01% DMSO and 1% acetonitrile. A T=0 aliquot was withdrawn after 10 min pre-incubation at 37° C. on a shaker. Reactions were initiated by the addition of NADPH (final concentration of 1 mM) and the plate was kept on a shaker at 37° C., further samples were withdrawn at 5, 15, 30, and 60 minutes. At each timepoint, the reactions were immediately terminated by adding of ice-cold acetonitrile containing internal standard to the withdrawn sample. The extracted samples were centrifuged for 10 minutes at 3200 rpm to pellet the precipitated microsomal protein, and the supernatant was combined 1:1 with water and analyzed by LC-MS/MS. Using the T=0 peak area ratio as 100%, the percentage of parent compound remaining was calculated. For each compound, the In percentage remaining versus incubation time was plotted and the slope of this linear regression (−k) was converted to an in vitro T1/2 value and CLint using the equations below.

CYP3A4 [4] = target: T1, CYP3A4; assay: TDI method: time-dependent CYP inhibition, IC50 shift -NADPH/+NADPH; assay type: in vitro ADME; settings: IC50 (-NADPH) divided by IC50 (+NADPH), 30 min pre-incubation, human liver microsomes
Experimental: Test compound or positive control inhibitors (CYP2C9: Tienilic acid; CYP2D6: paroxetine; CYP3A4: mifepristone) were dissolved in DMSO and a semi-log dilution (up to 50.0 μM) was prepared to 2 incubation plates and normalized for a final DMSO content of 0.5%. Human liver microsomes were diluted at 1 mg/mL with 100 mM potassium phosphate buffer pH 7.4 (1 mM MgCl2) and added to both incubation plates. After pre-incubation at 37° C., the reaction was started with the addition of NADPH (+NADPH condition) or with water (-NADPH condition). Plates were incubated for 30 min and 8 μL were transferred to a second incubation plate containing 72 μL of 1 mM NADPH, 20 μM diclofenac (CYP2C9), 20 μM dextromethorphan (CYP2D6) and 10 μM midazolam (CYP3A4) in 100 mM potassium phosphate buffer pH 7.4 (1 mM MgCl2). Plates were incubated for 10 min and the reaction was stopped by the addition of cold acetonitrile containing internal standard (1:1 v/v). Incubation plates were centrifuged at 3000 rpm for 10 minutes to precipitate protein, and the supernatant was used for LC-MS/MS analysis. Metabolite area ratio (4-OH-diclofenac, dextrorphan and 1-OH-midazolam) versus internal standard area ratio was used as the quantitative signal. Data were analyzed using the plot log of concentration (x axis) versus the percentage of inhibition (y axis) and IC50, Hill Slope and R^2 were determined. The IC50 shift was then calculated by dividing the IC50-NADPH condition by the IC50 obtained in the +NADPH condition.

PXR nuclear receptor = PXR nuclear receptor (Homo sapiens (Human), UniProt O75469); assay: PXR method: luciferase reporter gene activation in transfected tumor cells; assay type: cell-based; settings: test compound 0.03-10 μM; for fold induction at 24 h: compared with vehicle-treated cells, read-out: PXR activation (Max fold induction); for PXR activation (% Max activity): percentage of the response given by Rifampicin at 10 μM, 24 h
Chain of PXR nuclear receptor (O75469 whole entry): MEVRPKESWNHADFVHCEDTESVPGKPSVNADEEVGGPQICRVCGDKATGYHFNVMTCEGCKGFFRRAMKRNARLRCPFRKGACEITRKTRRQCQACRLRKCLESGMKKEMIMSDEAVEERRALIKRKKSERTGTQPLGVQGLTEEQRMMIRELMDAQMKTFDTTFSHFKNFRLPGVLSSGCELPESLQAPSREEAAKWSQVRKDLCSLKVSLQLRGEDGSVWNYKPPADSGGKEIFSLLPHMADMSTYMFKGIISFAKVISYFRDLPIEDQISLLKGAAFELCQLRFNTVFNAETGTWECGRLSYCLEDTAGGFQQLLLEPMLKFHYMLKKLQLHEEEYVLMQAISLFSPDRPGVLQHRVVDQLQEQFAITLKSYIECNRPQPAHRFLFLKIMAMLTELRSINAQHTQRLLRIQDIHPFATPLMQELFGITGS
Experimental: An expression vector harboring a full-length PXR nuclear receptor plus the appropriate enhancers and promoters linked to the luciferase reporter gene were integrated into the tumor cells. Tumor cells transfected with the species-specific nuclear receptor and the corresponding response elements were seeded in a 96-well plate. Twenty-four hours after seeding, the cells were treated with six distinct concentrations (0.03-10 μM) of the test compound. The cells were then returned to the incubator for an additional 24 h. After this incubation period, the number of viable cells/well were determined using Promega's Cell Titer Fluor cytotoxicity assay. At the end of the assay, Promega's ONE-Glo was added to assess the receptor activation by monitoring reporter gene activity, and by comparing the results to vehicle-treated cells. Activation data were normalized to the number of viable cells/well. Results are expressed as a percentage of the response given by Rifampicin, the positive control, at a 10 μM dose.

Chain of PolQ ATPase enzyme (1-894) (O75417 1-894): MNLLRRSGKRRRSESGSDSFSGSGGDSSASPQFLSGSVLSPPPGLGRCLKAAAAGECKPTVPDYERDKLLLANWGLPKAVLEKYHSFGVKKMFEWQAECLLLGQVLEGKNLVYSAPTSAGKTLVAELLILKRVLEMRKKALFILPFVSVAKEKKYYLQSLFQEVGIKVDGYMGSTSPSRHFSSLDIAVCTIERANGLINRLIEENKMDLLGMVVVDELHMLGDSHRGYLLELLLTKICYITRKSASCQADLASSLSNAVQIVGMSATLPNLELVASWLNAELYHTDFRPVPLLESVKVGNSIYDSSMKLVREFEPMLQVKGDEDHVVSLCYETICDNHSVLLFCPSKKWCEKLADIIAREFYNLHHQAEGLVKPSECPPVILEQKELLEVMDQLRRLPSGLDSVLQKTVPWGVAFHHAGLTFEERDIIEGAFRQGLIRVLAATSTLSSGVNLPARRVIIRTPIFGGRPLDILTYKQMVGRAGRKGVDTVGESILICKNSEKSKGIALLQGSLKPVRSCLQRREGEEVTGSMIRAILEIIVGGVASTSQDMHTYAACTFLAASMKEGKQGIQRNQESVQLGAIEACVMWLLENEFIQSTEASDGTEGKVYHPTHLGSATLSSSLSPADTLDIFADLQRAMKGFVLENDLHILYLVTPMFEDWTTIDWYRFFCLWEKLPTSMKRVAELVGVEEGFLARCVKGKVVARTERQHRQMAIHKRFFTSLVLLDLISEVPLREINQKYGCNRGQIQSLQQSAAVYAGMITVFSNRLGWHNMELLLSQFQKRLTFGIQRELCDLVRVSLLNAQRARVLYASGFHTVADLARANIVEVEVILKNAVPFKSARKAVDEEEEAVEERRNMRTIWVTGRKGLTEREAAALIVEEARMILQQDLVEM

Structure (SMILES) | IC50 [1] [nM] | IC50 (CYP3A4 [2]) [nM] | microsomal CLint at 1 μM [3] [µL/min/mg] | Time-dependent CYP3A4 inhibition-shift after 30 min with NADPH (CYP3A4 [4]) [x] | fold induction at 24 h (PXR nuclear receptor) | PXR activation (% Max activity) (PXR nuclear receptor) [%]
COc1ccccc1-c1cnccc1C(=O)Nc1nnc(C#Cc2ccc(Cl)cc2)s1 [Compound 474] | 7.6 | 1940 | 22.5 | 1 | 1.5 | 3.0
COc1ccc(F)cc1-c1cnccc1C(=O)Nc1nnc(OCc2ccc(C#N)cc2)s1 |  | 234 | 174 | 1 | 3.9 | 17
C=C(C1=CN=CCC1C(=O)Nc1nnc(CCC2CC2)s1)/C(=C\N=C\Cl)OC (centres unmarked) |  | > 30000 | < 7.7 | 1 | 1.8 | 5.0
COc1ccccc1-c1cnccc1C(=O)Nc1nnc(OCc2ccc(C#N)cc2)s1 |  | 450 | 234 | 3.6 | 7.9 | 36.0
COc1ccccc1-c1cnccc1C(=O)Nc1nnc(OCc2ccc(Cl)cc2)s1 |  | 1170 | 262 | >6.5 | 8.8 | 46.0
